The source of these data is article PMC9032987, “Cytotoxic Alkylynols of the Sponge Cribrochalina vasculum: Structure, Synthetic Analogs and SAR Studies” (Marine Drugs, 2022).

One series has as its system NSCLC U-1810 cells. The series is described as follows: MTT cytotoxicity assay in NSCLC U-1810 cells. Format: cell-based, human. Conditions: for IC50: MTT, 72 h post addition, estimated from cell viability curve; for Selectivity NSCLC cells (U-1810) vs. diploid fibroblasts (WI-38): calculated at IC50 (WI-38 IC50 / U-1810 IC50). As to the method: (§1) Cytotoxicity structure-activity relationship analyses of compounds in NSCLC tumor cells and fibroblasts. Stock solutions (10 mg/mL) of the compounds to be tested were made in DMSO and further diluted with cell culture media prior to structure-activity relationship (SAR) screening as earlier described. To assess anti-tumor activity, the large cell lung carcinoma cell line NSCLC U-1810 (kind gift from Uppsala University) and diploid lung fibroblasts WI-38 [30] were used. U-1810 cells were propagated in RPMI-1640 medium (Sigma-Aldrich, St. Louis, […], USA) supplemented with FBS (10% HyClone) and L-glutamine (2 mmol/L, Invitrogen) while WI-38 fibroblasts were cultured in Eagle’s Minimum Essential Medium (Sigma-Aldrich) with 15% FBS and L-glutamine. For SAR assessment the cytotoxic assay 3-(4,5-dimethylthiazol-2-yl)-2,5 diphenyltetrazolium bromide (MTT) was applied. Profiling of U-1810 cells was carried out at 80% confluency (obtained by seeding 5000 cells/well in a 96-well plate for 24 h prior to treatment) and of WI-38 at 100% confluency (obtained by seeding 18,000 cells/well in a 96-well plate for 24 h prior to compound addition), the later to mimic the behavior of fibroblasts in the human body where they are non-dividing. For SAR evaluation, different concentrations of the compounds were added to fresh media while untreated cells were treated with DMSO corresponding to the amount applied when testing the highest concentration of the different compounds. The cytotoxicity of the compounds was assessed at 72 h post addition to cells by adding MTT solution (0.5 mg/mL, Sigma-Aldrich, 4 h at 37 °C) and dissolving the resulting formazan crystals in an SDS-containing solution (10% SDS and 0.01 mol/L HCl). Absorbance was quantified at 595 nm and the compound-induced cytotoxicity was calculated relative to that observed in DMSO-treated cells. The IC50 values were deduced from survival plots drawn in Graph Pad PRISM software vers.6 and for some of the compounds extrapolated as indicated in footnotes to Table 1.

Series [1] relates to WI-38 diploid lung fibroblasts. The series is described as follows: MTT cytotoxicity assay in diploid lung fibroblasts WI-38. It counts as cell-based, human. Conditions: MTT, 72 h post addition, confluent cells, estimated from cell viability curve. As to the method:
as §1

With `C#CC(O)c1cccc(CCCCCCCCCCCCCC)c1` (racemic) [rac-45, 1-(3-tetradecylphenyl)prop-2-yn-1-ol], the IC50 (commonly the concentration needed to halve the response being measured) with NSCLC U-1810 cells (Homo sapiens, U-1810, 72 h) is about 152000 nM. Further, in the series on NSCLC U-1810 cells (Homo sapiens, U-1810, at 76 µM, one experiment, read-out: cell viability), the viability (as a rule, a per cent measure of how many cells are alive, often set against a control) at 76 µM was about 70%.
Consider `C#CC(O)c1ccccc1CCCCCCCCCCCCCC` (racemic) [rac-48, 1-(2-tetradecylphenyl)prop-2-yn-1-ol], for which the IC50 in the series with NSCLC U-1810 cells (Homo sapiens, U-1810, 72 h) was about 50000 nM.
Take `C#CC(O)c1ccccc1` (racemic) [rac-49, 1-Phenylprop-2-yn-1-ol]: in the series with NSCLC U-1810 cells, the “cytotoxic activity in NSCLC U-1810 cells (in words)” value (“cytotoxic activity” below) is “did not display any anti-tumor effect”. Also, the half-inhibitory concentration (IC50) in the series with NSCLC U-1810 cells (Homo sapiens, U-1810, 72 h) is over 379000 nM. Moreover, the viability at 379 µM in the series with NSCLC U-1810 cells (Homo sapiens, U-1810, at 379 µM, 72 h, read-out: cell viability) was about 80%.
For `C#C[C@H](O)/C=C/CCCCCCCCCCCCC(C)C` [Compound 1, (3R)-18-Methylnonadec-(4E)-en-1-yn-3-ol], in the series with NSCLC U-1810 cells, the “cytotoxic activity” value is recorded as “equally active”, the “tumor selective cytotoxicity NSCLC vs WI-38 (in words)” value (from here on “tumor selective cytotoxicity NSCLC”) was “selectivity at lower doses” and the “Selectivity NSCLC cells (U-1810) vs. diploid fibroblasts (WI-38)” value (shortened to “Selectivity NSCLC cells”) is 12. Further, the IC50 in the series with NSCLC U-1810 cells (Homo sapiens, U-1810, 72 h) is 1000 nM. Also, the concentration for half-maximal inhibition (IC50) in series [1] (Homo sapiens, WI-38, 72 h) was 12 µM.
Turning to `C#CC(=O)/C=C/CCCCCCCCC(C)CCCCCC` (stereo not shown) [Compound 6, 14-Methylicos-(4E)-en-1-yn-3-one], in the series on NSCLC U-1810 cells, the “cytotoxic activity” value is reported as “not active”. Moreover, the IC50 in the series on NSCLC U-1810 cells (Homo sapiens, U-1810, 72 h) was 65000 nM; in series [1] (Homo sapiens, WI-38, 72 h), 73 µM. Besides, in the series with NSCLC U-1810 cells, the “Selectivity NSCLC cells” value is recorded as 1.1.
On to `C#C[C@H](O)CCCCCCCCCCC(C)CCCCCC` (stereo partly drawn) [Compound 7, (3R)-14-Methylicos-1-yn-3-ol], for which, in the series with NSCLC U-1810 cells, the “cytotoxic activity” value is reported as “equally active”. Also, in the series with NSCLC U-1810 cells, the “tumor selective cytotoxicity NSCLC” value is recorded as “clear tumor selective activity”. For the same compound, the IC50 in the series on NSCLC U-1810 cells (Homo sapiens, U-1810, 72 h) is 3000 nM; in series [1] (Homo sapiens, WI-38, 72 h), over 163 µM.
In the case of `C#CC(O)C=CCCCCCCCC1CC1CCCCCC` (stereo not shown) [Compound 8], in the series on NSCLC U-1810 cells, the “cytotoxic activity” value is “equally active”, the “tumor selective cytotoxicity NSCLC” value is on record as “selectivity at lower doses” and the “Selectivity NSCLC cells” value is given as 10. In the series with NSCLC U-1810 cells (Homo sapiens, U-1810, 72 h), the IC50 is 1000 nM. The 50% inhibitory concentration (IC50) in series [1] (Homo sapiens, WI-38, 72 h) is 10 µM.
Turning to `C#CC(=O)/C=C/CCCCCCCCC/C=C\CCCCCC` [Compound 10, Docos-(4E,15Z)-dien-1-yn-3-one], the “cytotoxic activity” value in the series with NSCLC U-1810 cells is given as “not active”. Besides, the IC50 in the series with NSCLC U-1810 cells (Homo sapiens, U-1810, 72 h) is about 80000 nM; in series [1] (Homo sapiens, WI-38, 72 h) it was 30 µM. Besides, the “Selectivity NSCLC cells” value with NSCLC U-1810 cells is about 0.4.
Taken in the same sequence, the figures for `C#C[C@H](O)/C=C/CCCCCCCCCCCCCC(C)C` [Compound 19, (3R)-19-Methylicos-(4E)-en-1-yn-3-ol] were “equally active”, 2000 nM, 13 µM and 6.5.
Taken in the same sequence, the figures for `C#C[C@H](O)/C=C/CCCCCCCCCCCCCCCC` [Compound 20, (3R)-Henicos-(4E)-en-1-yn-3-ol] were “equally active”, 1400 nM, 14 µM and 10.
Taken in the same sequence, the figures for `C#C[C@H](O)/C=C/CCCCCCCCC/C=C\CCCCC(C)C` [Compound 22, (3R)-21-Methyldocos-(4E,15Z)-dien-1-yn-3-ol] were “equally active”, 1200 nM, 13 µM and 10.8.
With `C#C[C@H](O)/C=C/CCCCCCCCCCCCCCC` [Compound R-18, (R,E)-icos-4-en-1-yn-3-ol], in the series with NSCLC U-1810 cells, the IC50 was 900 nM and the “Selectivity NSCLC cells” value was 3.8. Moreover, in series [1], the IC50 was 3.4 µM.
For the compound `C#C[C@H](O)/C=C/CCCCCCCCCCCCCCC` [scal-R-18, (R,E)-icos-4-en-1-yn-3-ol], the 50% inhibitory concentration (IC50) in the series on NSCLC U-1810 cells (Homo sapiens, U-1810, 72 h) was 1000 nM; in series [1] (Homo sapiens, WI-38, 72 h), 6.8 µM. Besides, the “Selectivity NSCLC cells” value in the series with NSCLC U-1810 cells is on record as 6.8.
Taken in the same sequence, the figures for `C#C[C@@H](O)/C=C/CCCCCCCCCCCCCCC` [scal-S-18, (S)-icos-(4E)-en-1-yn-3-ol] were 1000 nM, 8.5 µM and 8.5.
